From patent publication US20250228858A1, “ANTI-CANCER COMBINATION THERAPY” (Boehringer Ingelheim International GmbH, priority 2023, published 2025)

What was measured:
[1] = system: T-DXd-resistant NCI-N87 cells; assay: Proliferation assay (CellTiter Glo), T-DXd resistant NCI-N87 cells; type: cell-based, human; settings: 5 days of incubation, in vitro
Protocol: (§1) Per well, 1000 cells are seeded in 40 μL medium in white, sterile 384-well culture plates (TC-treated; PerkinElmer #6007680) and incubated overnight in a humidified incubator at 37° C. and 5% CO2. 0.1% DMSO-control or serial compound dilution in triplicates are added. […] After 5 days of incubation with test compounds, the cells plates are measured upon addition of CellTiter Glo Luminescent Cell Viability Reagent (Promega, #G9243) to assess cell viability. The plates are placed on a shaker for five minutes and additionally incubated for 10 minutes at room temperature to induce cell lysis and to stabilize the luminescent signal. The luminescent signal of each well is measured in an EnSpire Multilabel Plate Reader 658 (PerkinElmer). The dose response curves are fit and visualized using Boehringer Ingelheim's proprietary software MegaLab and PRISM (GraphPad Inc.).

[2] = system: HER2-overexpressing human gastric cancer cell line NCI-N87; assay: NCI-N87 subcutaneous xenograft, zongertinib with T-DXd; type: in vivo, NMRI-Foxn1^nu mice; settings: for Regressions >30% / TGI: day 22; for Regressions >30%: tumors regressed/total
Protocol: The study is performed in human gastric cancer cell line NCI-N87 grown as subcutaneous xenografts in NMRI-Foxn1^nu mice. Day 1 was the first day, day 21 the last day of treatment and day 22 the final day of analysis. […]
NCI-N87 is a HER2-overexpressing human gastric cancer cell line that can be obtained from the American Type Culture Collection (ATCC #CRL-5822). Cells are cultured in T175 tissue culture flasks at 37° C. and 5% CO2. The medium used is RPMI 1640 (ATCC #30-2001) supplemented with 10% fetal calf serum (FCS) (Thermo Scientific #SH 30084.03). Cultures are split twice weekly with a ratio of 1:2.
Mice are 6- to 10-week-old female NMRI-Foxn1^nu purchased from Taconic, Denmark. After arrival at the animal facility, mice are allowed to adjust to conditions at least for 5 days before they are used for the experiment. They are housed in Macrolon® type III cages in groups of 8 to 10 under pathogen-free, controlled and standardized conditions at 21.5±1.5° C. temperature, 55±10% humidity and 12-h light-dark cycle. Standardized diet (PROVIMI KLIBA) and autoclaved tap water are provided ad libitum. Subcutaneous microchips implanted under isoflurane anaesthesia are used to identify each mouse. Cage cards showing the study number, the animal identification number, the compound, the dose level, the administration route as well as the schedule remain with the animals throughout the study.
To establish subcutaneous tumors, NCI-N87 cells are harvested by centrifugation, washed and resuspended in PBS+5% FCS at 2.5×10^7 cells/ml. 100 μl cell suspension containing 2.5×10^6 cells is injected subcutaneously into the right flank of the mice (1 site per mouse).
The suspension is used for a maximum of 7 days.
T-DM1 (Kadcyla) can be purchased from Roche.
Mice in the control group are treated with vehicle, i.e.: • (i) 0.5% Natrosol, administered once daily for the duration of the treatment intragastrally by gavage needle with a volume of 10 ml/kg body weight; and • (ii) saline (0.9%), administered once every three weeks intravenously into the tail vein with a volume of 5 ml/kg.
Tumor volumes are measured three times a week with a caliper. The volume of each tumor [in mm^3] is calculated according to the formula: […]
To monitor side effects of treatment, mice are inspected daily for abnormalities and body weight is determined three times a week. […] In addition, animals with tumor sizes exceeding 1500 mm^3 in diameter, with ulcerating tumors or 18% body weight loss are euthanized for ethical reasons.
For a quick overview of possible treatment effects, the median of the tumor volume of each treatment group T is referred to the median of the control C as tumor growth inhibition (TGI) defined as: […]

[3] = system: parental NCI-N87 cells; assay: Proliferation assay (CellTiter Glo), parental NCI-N87 cells; type: cell-based, human; settings: 5 days of incubation, in vitro
Protocol: as §1

[4] = system: HER2-overexpressing human breast cancer cell line HCC1954; type: in vivo; settings: zongertinib 20 mg/kg qdx21 p.o., T-DXd 1 mg/kg q21dx1 i.v., pertuzumab 20 mg/kg q7dx3 i.p., alone or combined
Protocol: Day 1 was the first day, day 21 the last day of treatment and final day of analysis.
Cells are cultured in T75, T175 and 5-Layer tissue culture flasks at 37° C. and 5% CO2.
The statistical evaluation of the tumor volume and the body weight is conducted on day 21 (last day of the study). Apart from this, statistical analysis was performed as described in Example 1 (see paragraph 1.1.7), with no evaluation of tumor growth after stop of treatment.

[5] = system: HER2-overexpressing human ovarian cell line SK-OV-3; assay: SK-OV-3 subcutaneous xenograft, zongertinib with T-DXd; type: in vivo, NMRI-Foxn1^nu mice
Protocol: The study is performed in human ovarian cancer cell line SK-OV-3 grown as subcutaneous xenografts in NMRI-Foxn1^nu mice. Day 1 was the first day, day 20 the last day of treatment and final day of analysis.
SK-OV-3 is a HER2-overexpressing human ovarian cancer cell line that can be obtained from ATCC (lot HTB-77). Cells are cultured in T75, T175 and 5-Layer tissue culture flasks at 37° C. and 5% CO2. The medium used is IMDM (PAN-Biotech, #P04-200150) supplemented with 10% FCS (Cytiva HyClone Characterized FBS, SH30084.03n). Cultures are split twice weekly with a ratio of 1:2-1:3.
To establish subcutaneous tumors, SK-OV-3 cells are harvested by centrifugation, washed and resuspended in PBS+5% FCS at 5×10^7 cells/ml. 100 μl cell suspension containing 5×10^6 cells is injected subcutaneously into the right flank of mice (1 site per mouse).
Apart from this, statistical analysis was performed as described in Example 1 (see paragraph 1.1.7), with no evaluation of tumor growth after stop of treatment.

[6] = zongertinib 10 mg/kg qdx21 p.o., alone or combined with T-DXd 3 mg/kg q21dx1 i.v.
[7] = zongertinib 20 mg/kg qdx21 p.o., T-DXd 3 mg/kg q21dx1 i.v., alone or combined

**Q.** How did the “difference in IC50 between parental and T-DXd-resistant NCI-N87 cells” value [1] turn out when `C=CC(=O)NC1CCN(c2ncc3ncnc(Nc4ccc(Oc5ccc6c(c5)ncn6C)c(C)c4)c3n2)CC1` [Zongertinib, N-{1-[8-({3-methyl-4-[(1-methyl-1H-1,3-benzodiazol-5-yl)oxy]phenyl}amino)-[1,3]diazino [5,4-d]pyrimidin-2-yl]piperidin-4-yl}prop-2-enamide] was run?
**A.** Its value is “less than 10 fold”.

**Q.** What about the “sensitivity (dose response, cell viability)” value [1] of the same compound?
**A.** Its value is “sensitive”.

**Q.** And the “Regressions >30%” value [2, 6]?
**A.** Its value is 5/8.

**Q.** And the “Regressions >30%” value [2, 7]?
**A.** Its value is 7/8.

**Q.** What about the TGI [2, 6] of the same compound?
**A.** The TGI was 114%.

**Q.** And the TGI [2, 7]?
**A.** The TGI was 123%.

**Q.** And the “effect on tumor growth (median tumor volumes over time)” value ([2]; zongertinib 10 or 20 mg/kg/day, T-DXd 3 mg/kg once, 21-day experiment)?
**A.** Its value is “continuously shrank more than those in mice treated with T-DXd”.

**Q.** And the “sensitivity (dose response, cell viability)” value [3]?
**A.** Its value is “sensitive”.

**Q.** And the TGI ([4]; day 21)?
**A.** The TGI was 68%.

**Q.** What about the “Regressions >30%” value ([4]; tumors regressed/total (partial response)) of the same compound?
**A.** Its value is 0/8.

**Q.** And the TGI ([5]; day 15, zongertinib 10 mg/kg qdx20 p.o., T-DXd 7 mg/kg q21dx1 i.v., alone or combined)?
**A.** The TGI was 91%.

**Q.** What about the “Regressions >30%” value ([5]; day 20, tumors regressed/total (partial response), zongertinib 10 mg/kg qdx20 p.o., T-DXd 7 mg/kg q21dx1 i.v., alone or combined) of the same compound?
**A.** The value was 0/8.

**Q.** What about the stable diseases ([5]; day 20, zongertinib 10 mg/kg qdx20 monotherapy) of the same compound?
**A.** The stable diseases was 2 out of 8.
